The target in one test is T1, A1 receptors (Rattus norvegicus, UniProt P25099).
T1 construct: the brain is quickly removed and washed in cold isotonic solution; from tissue; host or cells: rat brain hemispheres (membrane homogenate)
T1 sequence (P25099 1-326): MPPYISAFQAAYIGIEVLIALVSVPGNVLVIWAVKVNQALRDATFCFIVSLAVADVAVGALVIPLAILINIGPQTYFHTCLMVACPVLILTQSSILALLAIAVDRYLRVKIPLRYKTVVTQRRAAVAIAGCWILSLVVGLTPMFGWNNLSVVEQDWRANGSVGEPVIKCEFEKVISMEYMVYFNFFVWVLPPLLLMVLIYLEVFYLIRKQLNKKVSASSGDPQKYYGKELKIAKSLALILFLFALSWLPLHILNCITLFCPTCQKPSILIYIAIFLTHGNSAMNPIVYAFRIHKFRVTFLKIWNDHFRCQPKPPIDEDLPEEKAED
The experiment in a line: Binding to adenosine A1 receptors: competitive displacement of [^3 H] PIA, rat brain membranes. Conditions: [^3 H] PIA 2.5 nM, n=3; for inhibition at 10 µM: 10^-5 M, read-out: % displacement of the labeled ligand, A1, 1E-5M; for inhibition at 0.1 µM: read-out: % displacement of the labeled ligand, A1, 1E-7M. The protocol: (§1) The affinity of the products of the Examples for the rat central A1 and A2 adenosinergic receptors is determined by the competitive technique using a radioactive ligand specifically bound either to the A1 receptors ([^3 H] PIA) or to the A2 receptors ([^3 H] NECA).
After the animal has been sacrificed by decapitation, the brain is quickly removed and washed in cold isotonic solution. The two hemispheres are separated and weighed and each of them is introduced into a polyallomer tube containing 25 volumes of cold homogenization buffer. Homogenization is effected using an Ultra-Turrax for 30 seconds (3 times 10 seconds with 10-second intervals, 70% of the maximum speed). The ground material obtained is centrifuged at 1000 g (≈3000 rpm) for 10 minutes at 4° C.
The supernatant is centrifuged again at 48,000 g (≈20,000 rpm) for 20 minutes at 4° C.
When this step is complete, the residue is taken up with 4 volumes of homogenization buffer, resuspended using a Vortex and homogenized with the Ultra-Turrax. Adenosine deaminase is then added at a rate of 1 U/ml, i.e. 1 μl/ml of homogenate, using a 10 μl Hamilton syringe.
After this treatment, the homogenate is shaken for 30 minutes at room temperature and then centrifuged at […] (≈20,000 rpm) for 30 minutes at 4° C.
The residue obtained is resuspended in 10 volumes of homogenization buffer and passed through the Ultra-Turrax for 20 seconds (2 times 10 seconds with a 10-second interval, 70% of the maximum speed).
The homogenate prepared in this way is used for the competitive tests. It is kept at 4° C. if the studies take place the same day, or stored at -20° C. in the form of 10 ml aliquots.
After the homogenate has been thawed at room temperature, it is passed through a Potter homogenizer (6 manual to-and-fro movements, speed 6), diluted to 2/5 in incubation buffer and placed in a water bath thermostated at 4° C., with shaking, until the end of the experiment.
50 μl of [^3 H] PIA at 100 nM, i.e. 2.5 nM in the final reaction medium allowing for the 1/40 dilution, and 50 μl of the product of the Example at the concentrations considered (10^-5 M and 10^-7 M) are introduced into the reaction tubes. The reaction is initiated by the addition of 1 ml of homogenate and 900 μl of incubation buffer. The procedure is identical for all the […] studied.
The tubes are shaken and incubated in a water bath at 20° C. for 30 minutes. When the incubation is complete, the contents of the tubes are filtered on Whatman GF/B paper. Each tube is washed twice with 2 ml of rinsing buffer and then the filters themselves are rinsed with 3 ml of this same buffer.
The filters are then transferred to counting flasks and 10 ml of liquid scintillator (Ready Solv HP/b, Beckman) are added.
After they have been shaken, the flasks are stored in a refrigerator overnight and the radioactivity is then determined in a liquid scintillation counter.
3 tests are performed for each concentration studied. The non-specific binding of the [^3 H] PIA is assessed by measuring the amount of radioactivity retained on the filter in the presence of 10^-5 M phenylisopropyladenosine (PIA). The value of the non-specific binding is systematically subtracted from that of the tests.
(§2) The results are expressed for each product in the form of the percentage displacement (n=3) of the labeled radioligand at concentrations of 10^-5 M and 10^-7 M.

In another test the target is T2, A2 receptors (Rattus norvegicus, UniProt P30543).
T2 construct: The two hemispheres are separated and the striatum is removed from each of them (Bruns et al., 1986); from tissue; host or cells: rat striatum (membrane homogenate)
Kind of test: Binding to adenosine A2 receptors: competitive displacement of [^3 H] NECA, rat striatum membranes. The conditions noted are these: [^3 H] NECA 4 nM, n=3; for inhibition at 10 µM: read-out: % displacement of the labeled ligand, A2, 1E-5M; for inhibition at 0.1 µM: read-out: % displacement of the labeled ligand, A2, 1E-7M. The protocol:
as §1
After decapitation of the animal, the brain is quickly removed and washed in cold isotonic solution. The two hemispheres are separated and the striatum is removed from each of them (Bruns et al., 1986), weighed and introduced into a polyallomer tube containing 10 volumes of cold homogenization buffer. The tissue is homogenized with an Ultra-Turrax for 30 seconds (3 times 10 seconds with 10-second intervals, 70% of the maximum speed). The ground material is centrifuged at 50,000 g (≈20,500 rpm) for 10 minutes at 4° C.
The residue obtained is resuspended in 10 volumes of homogenization buffer using a Vortex and homogenized with the Ultra-Turrax (5 to 10 seconds, 70% of the maximum speed).
Adenosine deaminase is then added at a rate of 1 U/ml, i.e. 1 μl/ml of homogenate, using a 10 μl Hamilton syringe. The homogenate treated in this way is shaken at room temperature for 30 minutes.
When the incubation is complete, the homogenate is centrifuged at 50,000 g (≈20,500 rpm) for 10 minutes at 4° C.
The residue is taken up with 5 volumes of cold homogenization buffer and passed through the Ultra-Turrax (2 times 10 seconds with a 10-second interval, 70% of the maximum speed) and the homogenate prepared in this way is finally frozen at -70° C.
After the homogenate has been thawed at room temperature, 15 volumes of incubation buffer are added. The homogenate is shaken on a Vortex, passed through a Potter homogenizer (6 to-and-fro movements, speed 6), diluted to 1/10 in incubation buffer and finally placed in a water bath thermostated at 4° C., with shaking, until the end of the experiment.
50 μl of [^3 H] NECA at 160 nM, i.e. 4 nM in the final reaction medium allowing for the 1/40 dilution, and 50 μl of the product of the Example at the concentrations considered (10^-5 M and 10^-7 M) are introduced into the reaction tubes. The reaction is initiated by the addition of 1 ml of homogenate and 900 μl of incubation buffer. The procedure is similar for all the compounds studied.
The tubes are shaken and incubated in a water bath at 25° C. for 60 minutes. When the incubation is complete, the contents of the tubes are filtered on Whatman GF/B paper. Each tube is washed twice with 2 ml of rinsing buffer and then the filters themselves are rinsed with 3 ml of this same buffer before being transferred to counting flasks.
10 ml of liquid scintillator (Ready Solv HP/b, Beckman) are added to all the flasks. These are shaken and stored in a refrigerator overnight. The radioactivity is determined in a liquid scintillation counter.
3 tests are performed for each concentration studied. The non-specific binding of the [^3 H] NECA is determined by measuring the amount of radioactivity retained on the filter in the presence of 5 μM N-ethylcarboxamidoadenosine (NECA). The value of the non-specific binding is systematically subtracted from that of the tests.
as §2

Test [1] deals with twisting and stretching movements in mice. Kind of test: Phenylbenzoquinone test (analgesic activity). Type of test: in vivo. Conditions: one hour before phenylbenzoquinone i.p., 5 minutes observation; for ED50: Mus musculus, po, read-out: Phenylbenzoquinone test 50% inhibitory dose. The protocol: The intraperitoneal injection of phenylbenzoquinone causes twisting and stretching movements in mice. Analgesics prevent or reduce this syndrome, which can be considered as the exteriorization of diffuse abdominal pain.
A 0.02% solution of phenylbenzoquinone in water is administered in a volume of 1 ml/100 g.
The products of the Examples are administered orally one hour before the injection of phenylbenzoquinone.
The stretching and twisting movements are counted for each mouse over an observation period of 5 minutes.

The results in this text go back to patent US5219839A, “Adenosine derivatives, their methods of preparation and pharmaceutical compositions in which they are present” (Laboratories UPSA, priority 1992, dated 1993).

T2 sequence (P30543 whole entry): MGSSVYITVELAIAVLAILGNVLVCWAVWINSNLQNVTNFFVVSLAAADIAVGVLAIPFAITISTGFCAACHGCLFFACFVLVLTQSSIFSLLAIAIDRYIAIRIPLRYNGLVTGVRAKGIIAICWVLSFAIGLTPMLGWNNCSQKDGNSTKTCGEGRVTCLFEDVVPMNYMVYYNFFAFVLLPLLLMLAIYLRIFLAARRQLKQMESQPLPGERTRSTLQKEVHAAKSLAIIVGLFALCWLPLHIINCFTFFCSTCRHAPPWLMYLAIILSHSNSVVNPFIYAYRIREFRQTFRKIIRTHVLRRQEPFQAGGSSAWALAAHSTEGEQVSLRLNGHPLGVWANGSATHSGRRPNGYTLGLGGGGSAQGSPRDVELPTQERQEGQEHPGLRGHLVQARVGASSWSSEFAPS

For the compound `CCNC(=O)[C@H]1O[C@@H](n2cnc3c(NCC4CC4(c4ccccc4)c4ccccc4)ncnc32)[C@H](O)[C@@H]1O` (single isomer, unassigned) [Example 49, β-D-Ribofuranuronamido-N-ethyl-1-deoxy-1-[6-[(-)-[[2,2-diphenylcyclopropyl]methyl]amino]-9H-purin-9-yl]], the inhibition at 10 µM on A1 receptors is 93%. Further, at A1 receptors (10^-7 M, 0.1 µM), the “% displacement of the labeled ligand, A1, 1E-7M” value is given as 15%. The “% displacement of the labeled ligand, A2, 1E-5M” value on A2 receptors (10^-5 M, 10 µM) is reported as 86%. Moreover, the “% displacement of the labeled ligand, A2, 1E-7M” value at A2 receptors (10^-7 M, 0.1 µM) is listed as 0%. The “Phenylbenzoquinone test 50% inhibitory dose” value in test [1] (p.o.) turned out to be 0.7 mg/kg.
`O=C(NC1CC1)[C@H]1O[C@@H](n2cnc3c(NCC4CC4(c4ccccc4)c4ccccc4)ncnc32)[C@H](O)[C@@H]1O` (mixture of isomers) [Example 42, β-D-Ribofuranuronamido-N-cyclopropyl-1-deoxy-1-[6-[(±)-[[2,2-diphenylcyclopropyl]methyl]amino]-9H-purin-9-yl]]: the inhibition at 10 µM on A1 receptors is 96%; at A2 receptors (10^-5 M), 94%. For the same compound, the inhibition at 0.1 µM on A1 receptors (10^-7 M) turned out to be 20%; on A2 receptors (10^-7 M), 59%. In addition, the ED50 in test [1] is 0.9 mg/kg.
On the same counts, the results for `O=C(NC1CC1)[C@H]1O[C@@H](n2cnc3c(NCC4CC4(c4ccc(F)cc4)c4ccc(F)cc4)ncnc32)[C@H](O)[C@@H]1O` (mixture of isomers) [Example 40, β-D-Ribofuranuronamido-N-cyclopropyl-1-deoxy-1-[6-[(±)-[[2-di(4-fluorophenyl)cyclopropyl]methyl]amino]-9H-purin-9-yl]] are 94%, 89%, 15%, 53% and 0.5 mg/kg.
On the same counts, the results for `O=C(NC1CC1)[C@H]1O[C@@H](n2cnc3c(NCC4CC45c4ccccc4CCc4ccccc45)ncnc32)[C@H](O)[C@@H]1O` (mixture of isomers) [Example 45, β-D-Ribofuranuronamido-N-cyclopropyl-1-deoxy-1-[6-[(±)-2-[spiro[10',11'-dihydrocyclopropane-1,5'-[5H]-dibenzo[a,d]cycloheptene]methyl]amino]-9H-purin-9-yl]] are 93%, 79%, 20%, 12% and 1.6 mg/kg.
